Results taken from ChEMBL document CHEMBL3885881, “DrugMatrix”.

Organism: Rattus norvegicus
Type: toxicity, organism-based, Sprague-Dawley
Conditions: in vivo, po, route oral GAVAGE, vehicle 100 % SALINE; for ABSOLUTE EOSINOPHIL / ABSOLUTE LYMPHOCYTE / ABSOLUTE MONOCYTE / ABSOLUTE SEGMENTED NEUTROPHIL / BASOPHIL / EOSINOPHIL / ERYTHROCYTE COUNT / HEMATOCRIT / HEMOGLOBIN / LEUKOCYTE COUNT / LYMPHOCYTE / MEAN CORPUSCULAR HEMOGLOBIN / MEAN CORPUSCULAR HEMOGLOBIN CONCENTRATION / MEAN CORPUSCULAR VOLUME / MONOCYTE / NEUTROPHIL / NUCLEATED RED BLOOD CELLS / PLATELET COUNT: tissue Blood; for ALANINE AMINOTRANSFERASE / ALBUMIN / ALKALINE PHOSPHATASE / ASPARTATE AMINOTRANSFERASE / BLOOD UREA NITROGEN / CARBON DIOXIDE / CHLORIDE / CHOLESTEROL / CREATINE PHOSPHOKINASE / CREATININE / GLUCOSE / LACTATE DEHYDROGENASE / LIPASE / PHOSPHORUS / POTASSIUM / SODIUM / TOTAL BILIRUBIN / TOTAL PROTEIN / URIC ACID: tissue Plasma
[1] = 0 mg/kg, 6 h, vehicle control, dose level Control, time 0.25 day
[2] = 0 mg/kg, 24 h, vehicle control, dose level Control, time 1 day
[3] = 10 mg/kg, 6 h, dose level Low, time 0.25 day

Description: DrugMatrix - Regimen: Single

SMILES: O=[As][O-].[Na+] [SODIUM ARSENITE]
- ABSOLUTE EOSINOPHIL [1]: 24 CELLS/uL
- ABSOLUTE LYMPHOCYTE [1]: 11958.17 CELLS/uL
- ABSOLUTE MONOCYTE [1]: 398.83 CELLS/uL
- ABSOLUTE SEGMENTED NEUTROPHIL [1]: 1252.33 CELLS/uL
- BASOPHIL [1]: 0%
- EOSINOPHIL [1]: 0.17%
- ERYTHROCYTE COUNT [1]: 5.37 x10E6/uL
- HEMATOCRIT [1]: 35.6%
- HEMOGLOBIN [1]: 13.05 G/DL
- LEUKOCYTE COUNT [1]: 13.63 x10E3/uL
- LYMPHOCYTE [1]: 87.67%
- MEAN CORPUSCULAR HEMOGLOBIN [1]: 24.28 pg
- MEAN CORPUSCULAR HEMOGLOBIN CONCENTRATION [1]: 36.67 G/DL
- MEAN CORPUSCULAR VOLUME [1]: 66.28 fL
- MONOCYTE [1]: 2.83%
- NEUTROPHIL [1]: 9.33%
- NUCLEATED RED BLOOD CELLS [1]: 0 /100WBC
- PLATELET COUNT [1]: 947.83 x10E3/uL
- ALANINE AMINOTRANSFERASE [1]: 51 u/L
- ALBUMIN [1]: 4.02 G/DL
- ALKALINE PHOSPHATASE [1]: 312.33 u/L
- ASPARTATE AMINOTRANSFERASE [1]: 98.17 u/L
- BLOOD UREA NITROGEN [1]: 9.5 mg/dL
- CARBON DIOXIDE [1]: 18.83 mmol/L
- CHLORIDE [1]: 103.5 MEQ/L
- CHOLESTEROL [1]: 69.5 mg/dL
- CREATINE PHOSPHOKINASE [1]: 580.17 u/L
- CREATININE [1]: 0.53 mg/dL
- GLUCOSE [1]: 175.67 mg/dL
- LACTATE DEHYDROGENASE [1]: 295.5 u/L
- LIPASE [1]: 8.17 u/L
- PHOSPHORUS [1]: 14.12 mg/dL
- POTASSIUM [1]: 5.77 MEQ/L
- SODIUM [1]: 144.13 MEQ/L
- TOTAL BILIRUBIN [1]: 0.12 mg/dL
- TOTAL PROTEIN [1]: 4.87 G/DL
- URIC ACID [1]: 2.25 mg/dL
- ABSOLUTE EOSINOPHIL [2]: 0 CELLS/uL
- ABSOLUTE LYMPHOCYTE [2]: 12232.83 CELLS/uL
- ABSOLUTE MONOCYTE [2]: 20.33 CELLS/uL
- ABSOLUTE SEGMENTED NEUTROPHIL [2]: 780.17 CELLS/uL
- BASOPHIL [2]: 0%
- EOSINOPHIL [2]: 0%
- ERYTHROCYTE COUNT [2]: 5.18 x10E6/uL
- HEMATOCRIT [2]: 33.48%
- HEMOGLOBIN [2]: 13.22 G/DL
- LEUKOCYTE COUNT [2]: 13.03 x10E3/uL
- LYMPHOCYTE [2]: 93.33%
- MEAN CORPUSCULAR HEMOGLOBIN [2]: 25.57 pg
- MEAN CORPUSCULAR HEMOGLOBIN CONCENTRATION [2]: 39.52 G/DL
- MEAN CORPUSCULAR VOLUME [2]: 64.65 fL
- MONOCYTE [2]: 0.17%
- NEUTROPHIL [2]: 6.5%
- NUCLEATED RED BLOOD CELLS [2]: 0 /100WBC
- PLATELET COUNT [2]: 931.5 x10E3/uL
- ALANINE AMINOTRANSFERASE [2]: 60.83 u/L
- ALBUMIN [2]: 4.18 G/DL
- ALKALINE PHOSPHATASE [2]: 283.33 u/L
- ASPARTATE AMINOTRANSFERASE [2]: 80.5 u/L
- BLOOD UREA NITROGEN [2]: 11.83 mg/dL
- CARBON DIOXIDE [2]: 35.33 mmol/L
- CHLORIDE [2]: 98.5 MEQ/L
- CHOLESTEROL [2]: 80 mg/dL
- CREATINE PHOSPHOKINASE [2]: 181.83 u/L
- CREATININE [2]: 0.2 mg/dL
- GLUCOSE [2]: 142.67 mg/dL
- LACTATE DEHYDROGENASE [2]: 65.5 u/L
- LIPASE [2]: 9.83 u/L
- PHOSPHORUS [2]: 9.82 mg/dL
- POTASSIUM [2]: 5.69 MEQ/L
- SODIUM [2]: 143.35 MEQ/L
- TOTAL BILIRUBIN [2]: 0.15 mg/dL
- TOTAL PROTEIN [2]: 6.2 G/DL
- URIC ACID [2]: 0.42 mg/dL
- ABSOLUTE EOSINOPHIL [3]: 25.17 CELLS/uL
- ABSOLUTE LYMPHOCYTE [3]: 12416.17 CELLS/uL
- ABSOLUTE MONOCYTE [3]: 214.33 CELLS/uL
- ABSOLUTE SEGMENTED NEUTROPHIL [3]: 1561 CELLS/uL
- BASOPHIL [3]: 0%
- EOSINOPHIL [3]: 0.17%
- ERYTHROCYTE COUNT [3]: 5.72 x10E6/uL
- HEMATOCRIT [3]: 37.97%
- HEMOGLOBIN [3]: 13.92 G/DL
- LEUKOCYTE COUNT [3]: 14.22 x10E3/uL
- LYMPHOCYTE [3]: 87.33%
- MEAN CORPUSCULAR HEMOGLOBIN [3]: 24.38 pg
- MEAN CORPUSCULAR HEMOGLOBIN CONCENTRATION [3]: 36.67 G/DL
- MEAN CORPUSCULAR VOLUME [3]: 66.45 fL
- MONOCYTE [3]: 1.5%
- NEUTROPHIL [3]: 11%
- NUCLEATED RED BLOOD CELLS [3]: 0 /100WBC
- PLATELET COUNT [3]: 1120 x10E3/uL
- ALANINE AMINOTRANSFERASE [3]: 87.17 u/L
- ALBUMIN [3]: 4.02 G/DL
- ALKALINE PHOSPHATASE [3]: 245.5 u/L
- ASPARTATE AMINOTRANSFERASE [3]: 141.33 u/L
- BLOOD UREA NITROGEN [3]: 12.83 mg/dL
- CARBON DIOXIDE [3]: 19 mmol/L
- CHLORIDE [3]: 104 MEQ/L
- CHOLESTEROL [3]: 63.17 mg/dL
- CREATINE PHOSPHOKINASE [3]: 934.5 u/L
- CREATININE [3]: 0.27 mg/dL
- GLUCOSE [3]: 184.33 mg/dL
- LACTATE DEHYDROGENASE [3]: 393.33 u/L
- LIPASE [3]: 8.83 u/L
- PHOSPHORUS [3]: 14.3 mg/dL
- POTASSIUM [3]: 6.23 MEQ/L
- SODIUM [3]: 142.98 MEQ/L
- TOTAL BILIRUBIN [3]: 0.12 mg/dL
- TOTAL PROTEIN [3]: 5.28 G/DL
- URIC ACID [3]: 2.03 mg/dL
